Results taken from PubChem BioAssay AID1996.
In brackets after ≈: the same amount, converted by molar mass.

Settings: buffer; pH 7.4; 200.0 µM

SMILES | solubility kinetic [µg/mL]
O=C(/C=C/c1ccc(Cl)cc1)N1CCOCC1 | 33.3 (≈ 132 µM)
O=C(NCCNC(=O)c1ccco1)c1ccc(Cl)c(Cl)c1 | 44.7 (≈ 137 µM)
COc1ccc(-c2cc(CS(=O)(=O)c3ccccc3)on2)cc1 | 0.7 (≈ 2.13 µM)
COc1ccc(NC(=O)COCC(=O)Nc2ccc(C)cc2)cc1 | 44.3 (≈ 135 µM)
CC1CCOC2(O1)C(=O)Nc1ccccc12 (centres undefined) | 24.4 (≈ 111 µM)
Cc1ccccc1SCC(=O)OCC(=O)NCc1ccccc1 | > 49.4
Cc1ccc(NC(=O)c2cc3cccc([N+](=O)[O-])c3[nH]2)cc1 | 2.8 (≈ 9.48 µM)
CC(C)(C)c1ccc(Oc2ccc(N)cn2)cc1 | > 36.3
CCCC(=O)Nc1ccc(C(=O)COC(=O)C2CC2C)cc1 (centres undefined) | 14 (≈ 46.2 µM)
O=C(NCCc1ccccc1Cl)C1CC(=O)N(C2CCCCC2)C1 (centres undefined) | > 52.3
N#Cc1ccc(N2CCCNCC2)nc1 | > 30.3
NS(=O)(=O)c1ccc(CCNC(=O)CN2C(=O)NC(c3ccccc3)(c3ccccc3)C2=O)cc1 | > 73.9
CCCCC(=O)Nc1ccc(NC(=O)c2cnccn2)cn1 | > 44.9
CCc1ccc(OCCOCCN2CCN(C)CC2)cc1.O=C(O)C(=O)O | 54
Cc1ccc(S(=O)(=O)N2CCCC(C(=O)NCC3CCCO3)C2)cc1 (centres undefined) | > 55
O=C1c2ccccc2-c2cccc(C(=O)N3CCCCC3)c21 | 36.7 (≈ 126 µM)
COc1ccc(N2C(=O)/C(=C/c3ccco3)C(=O)NC2=S)cc1 | 48.8 (≈ 149 µM)
O=[N+]([O-])c1cccc2c(S(=O)(=O)N3CCOCC3)cccc12 | 35.4 (≈ 110 µM)
COc1ccc(CNC(=O)CN2C(=O)c3ccccc3C2=O)cc1 | 4.4 (≈ 13.6 µM)
Cc1cc[n+](CCc2ccccc2)cc1C.[Br-] | > 43.8
Fc1cccc(CSc2nc3ncc(Cl)cc3[nH]2)c1 | 2.6 (≈ 8.85 µM)
Cn1cc(C(=O)NCC(=O)Nc2ccccc2Br)cn1 | > 50.6
COc1ccc(C)cc1S(=O)(=O)NC(C)C(=O)NC1CC1 (centres undefined) | > 46.9
COc1ccccc1C(=O)CC(=O)C(=O)Nc1cccc([N+](=O)[O-])c1C | 15.5 (≈ 43.5 µM)

SMILES | solubility kinetic [µg/mL]
CN(c1ccccc1)S(=O)(=O)c1ccc2c(c1)oc(=O)n2C | 27.1 (≈ 85.1 µM)
O=C(Nc1cc(S(=O)(=O)Nc2ccccc2Cl)ccc1O)c1ccc(F)cc1F | 3.3 (≈ 7.52 µM)
Cc1ccc(C(=O)Nc2ccc(NC(=O)c3ccc(C)o3)cc2)o1 | 1.7 (≈ 5.24 µM)
Cc1onc(-c2c(F)cccc2Cl)c1C(=O)OCC(=O)N1C(C)CCCC1C (centres undefined) | 41.7 (≈ 102 µM)
CCOc1cc(C(=O)Nc2ccc(N3CCOCC3)cc2)cc(Br)c1OC | 2 (≈ 4.59 µM)
Br.C=CCN1C2=NCCCN2c2ccccc21 | > 44.1
Cc1ccc(S(=O)(=O)N2CCOCC2)cc1C(=O)OCC(=O)N1CCCCC1 | > 61.6
COc1ccsc1NC(=O)OCc1ccc(Cl)cc1 | 19.3 (≈ 64.8 µM)
O=C(NCc1ccco1)c1ccc([N+](=O)[O-])cc1Cl | 40 (≈ 143 µM)
CC1CN(CC(=O)NCc2ccc(Cl)cc2)CC(C)O1 (centres undefined) | > 44.5
CN(C)S(=O)(=O)c1cccc(COc2cccnc2[N+](=O)[O-])c1 | 12.1 (≈ 35.9 µM)
O=C(COC(=O)c1ccc(Cl)nc1)Nc1ccc2c(c1)OCO2 | > 50.2
COc1cc2ccccc2cc1C(=O)NC1CCCCC1 | 25.3 (≈ 89.3 µM)
Cc1cc(C)c(OCC(=O)OC(C)C(=O)NC2CC2)c(C)c1 (centres undefined) | > 45.8
O=C1COc2ccc(S(=O)(=O)N3CCCCC3)cc2N1 | 43.3 (≈ 146 µM)
CC(C)(C)NCC(O)COc1cccc2c1C[C@H](O)[C@H](O)C2 (some centres undefined) | > 46.4
Cc1ccccc1OCC(=O)Nc1ccc(N2CCN(C)CC2)c(Cl)c1 | 12.3 (≈ 32.9 µM)
CCn1c(SCC(=O)N2CCOCC2)nnc1-c1ccco1 | > 48.4
CC(=O)N(C)c1ccc(NC(=O)N2CCOCC2)cc1 | 41.5 (≈ 150 µM)
CNC(=S)N1C2CCCC1CC(NC(=O)c1ccc(F)cc1)C2 (centres undefined) | 21.8 (≈ 65 µM)
CC(=O)Oc1ccc2c(=O)c(/C=N/c3cc(=O)[nH]c(=S)[nH]3)coc2c1 | 30.6 (≈ 85.6 µM)
CCc1ccc(NC(=O)/C(C#N)=C/c2ccncc2)cc1 | 8.8 (≈ 31.7 µM)
COc1ccc(NC(=S)NC2CC3CCC2C3)c(OC)c1 (centres undefined) | 14.8 (≈ 48.3 µM)
Cc1cccc(Cc2cnc(NC(=O)C3=NCCN3)s2)c1 | 7 (≈ 23.3 µM)

SMILES | solubility kinetic [µg/mL]
C=CCNC(=O)CN1N=C(c2ccc(C)cc2)CCC1=O | > 42.8
CCc1ccccc1NC(=O)CCOc1ccccc1 | 39 (≈ 145 µM)
CCCNC(=O)Nc1cccc(NC(C)=O)c1 | > 35.3
Cc1cccc(C)c1N1CCN(C(=O)Cn2cncn2)CC1 | > 44.9
N/C(=N\OC(=O)c1cccs1)c1cccnc1 | 33.1 (≈ 134 µM)
CCOC(=O)COn1c(=O)c(-c2ccc(OC)cc2)[n+]([O-])c2ccccc21 | 42 (≈ 113 µM)
CCc1noc(C)c1C(=O)N1CCN(S(=O)(=O)c2ccc(Cl)s2)CC1 | 55.4 (≈ 137 µM)
O=S1(=O)NC(=NCCOCCO)c2ccccc21 | > 40.5
NC(=O)COC(=O)CSc1ccc2ccccc2c1 | > 41.3
COc1ccc(C)cc1NC(=O)CSc1cccc[n+]1[O-] | > 45.7
O=c1c([N+](=O)[O-])cccn1Cc1cccc(Cl)c1 | > 39.7
COc1cccc(C(=O)Nc2cccc3c2ccc2cccn23)c1 | 1.3 (≈ 4.11 µM)
COc1ccc(CC(=O)NCCCc2ccccc2)cc1OC | > 47
Cc1cc(=O)[nH]c2ccc(S(=O)(=O)NC3CCCCC3)cc12 | 4.5 (≈ 14 µM)
N#Cc1ccc(NC(=O)c2cc(=O)c3ccccc3o2)cc1 | 0.8 (≈ 2.76 µM)
COc1ccccc1NC(=O)CC1SC(=N)N(c2ccccc2)C1=O (centres undefined) | 5.3 (≈ 14.9 µM)
COc1cccc(C(=O)NCCCn2ccnc2)c1 | > 38.9
CCC(=Nc1ccccc1)C1=C(O)CCCC1=O | 19.9 (≈ 81.8 µM)
Cc1c(/C=C(\CC(=O)O)c2nc3ccccc3s2)cc(C#N)n1C | 44.6 (≈ 132 µM)
CN(C)CCCN1C(=O)C2CCc3[nH]c4ccccc4c3C2C1=O (centres undefined) | > 48.8
COc1cc([N+](=O)[O-])ccc1NC(=O)COC(=O)C=C(C)C | 3.6 (≈ 11.7 µM)
CC(C)N(Cc1ccccc1)C(=S)Nc1ccc(F)cc1 | 45.1 (≈ 149 µM)
Cc1ccc(S(=O)(=O)N2CC=C(C(=O)NC3CC3)CC2)cc1 | 40.5 (≈ 126 µM)
O=C(COC(=O)/C=C/c1ccc([N+](=O)[O-])cc1)NCc1ccco1 | 1.5 (≈ 4.54 µM)

SMILES | solubility kinetic [µg/mL]
Cl.Oc1cccc(Nc2c3ccccc3nc3ccccc23)c1 | 0.7
Cc1ccc(S(=O)(=O)Nc2ccc3[nH]ccc3c2)cc1 | > 43
CCCNC(=O)c1cc2cc([N+](=O)[O-])ccc2s1 | 1.4 (≈ 5.3 µM)
CCC(Oc1ccc(F)cc1)C(=O)N1CCCCCCC1 (centres undefined) | 34.8 (≈ 119 µM)
CCOc1ncccc1C(=O)N1CCN(C(=O)c2ccccc2)CC1 | > 50.9
O=[N+]([O-])c1ccc(N2CCSCC2)cc1O | 4.1 (≈ 17.1 µM)
CN(C)c1cccc2c(S(=O)(=O)N3CCCC3)cccc12 | 34 (≈ 112 µM)
NS(=O)(=O)c1ccc(NC(=O)CN2CCc3ccccc32)cc1 | 23.6 (≈ 71.2 µM)
O=S(=O)(c1ccc2ncn(O)c2c1)N1CCOCC1 | > 42.5
CC(OC(=O)/C=C/c1ccccc1)C(=O)NC1CCCCC1C (centres undefined) | 8.4 (≈ 26.6 µM)
COc1ccc2nc(C)cc(Nc3ccc(C)cc3)c2c1.Cl | 30.5
O=C(/N=C1\NC(=O)C(F)(C(F)(F)F)S1)NC1CCCCC1 (centres undefined) | > 49.1
O=C(CCCCC(=O)NCCc1ccccc1)NCCc1ccccc1 | 2.8 (≈ 7.94 µM)
Cl.c1ccc2c3c(c(CN4CCCCC4)cc2c1)COC3 | > 45.6
CC(C)(C)NC(=O)CSc1ncccc1-c1nc2ccccc2[nH]1 | 3.3 (≈ 9.69 µM)
CC(=O)Nc1ccc(C(=O)NCCN2CCOCC2)cc1 | 36 (≈ 124 µM)
O=C(O)CCN1c2cccc3cccc(c23)S1(=O)=O | > 41.6
C/C(=N\NC(=O)c1cccnc1)c1cccc([N+](=O)[O-])c1 | > 42.6
Cc1cccc(N2CCN(C(=O)c3cccc(S(=O)(=O)N4CCCCC4)c3)CC2)c1C | 2.9 (≈ 6.57 µM)
COc1ccc(OC)c(/C=C/C(=O)NCCc2nc3ccccc3[nH]2)c1 | 46.4 (≈ 132 µM)
CC(C)(C)N(Cc1ccccc1)C(=O)COC(=O)C1CCCCC1 | 24.4 (≈ 73.6 µM)
Cc1ccc(C)c(-c2csc(-c3cccnc3)n2)c1 | 9.9 (≈ 37.2 µM)
O=C(NC(=S)N1CCc2ccccc21)C1CCC1 | > 39.1
COc1ccc2oc(=O)c(N3C(=O)c4ccccc4C3=O)cc2c1 | 1.2 (≈ 3.73 µM)

SMILES | solubility kinetic [µg/mL]
Cc1ccc(C(=O)Nc2ccc(N3CCN(C)CC3)cc2)c(Cl)c1 | > 51.6
c1ccc(Nc2ncnc3sccc23)cc1 | > 34.1
O=C(CSc1ccc(-c2ccc(F)cc2)nn1)NCC1CCCO1 (centres undefined) | > 52.1
CCOC(=O)Cn1c2ccccc2c2nc(C)sc21 | > 41.2
O=C(NC1CCCc2ccccc21)c1c(F)cccc1Cl (centres undefined) | 8.3 (≈ 27.3 µM)
Cc1ccc(C2(C)NC(=O)N(CC(=O)N3CC(=O)Nc4ccccc43)C2=O)cc1 (centres undefined) | 0.4 (≈ 1.02 µM)
COc1ccc(/C=C(/NC(=O)c2ccccc2)C(=O)N2CCCC2)cc1 | > 52.6
Cc1cc(C)c(OCCNCc2ccccc2)c(C)c1.O=C(O)C(=O)O | 42.5
COc1ccccc1NCCC(=O)O | > 29.3
O=C(NCC1OCCc2ccccc21)C1COc2ccccc2O1 (centres undefined) | > 48.8
COC(=O)Cc1c(O)ccn(CCc2c[nH]c3ccc(OC)cc23)c1=O | > 53.5
CC/C(C)=N/Oc1nc(C)cc(C)n1 | 28.5 (≈ 147 µM)
COc1ccc(CSCC(=O)NCCC(C)C)cc1 | > 42.2
COc1cc(C(=O)O/N=C2\C=CC(=O)C(C)=C2)cc(OC)c1OC | > 49.7
O=C(c1cccnc1)c1ncc(C(F)(F)F)cc1Cl | 35.7 (≈ 125 µM)
COc1ccc(C2C(C#N)=C(N)Oc3cc(O)ccc32)cc1Cl (centres undefined) | 43.5 (≈ 132 µM)
COc1ccc(CNC(=O)Nc2cccc(Cl)c2)cc1 | 1.1 (≈ 3.78 µM)
COc1ccc(C(=O)Nc2nc3ccccc3s2)c(OC)c1 | 1 (≈ 3.18 µM)
Cc1cc2nc3c(nc2cc1C)C(O)=C3O | 27.6 (≈ 129 µM)
O=[N+]([O-])c1ccc(N2CCN(c3ccc(F)cc3)CC2)cc1 | 0.3 (≈ 0.996 µM)
OC(CNCCc1c[nH]c2ccccc12)C(F)(F)F (centres undefined) | > 40.8
O=C(c1ccc([N+](=O)[O-])cc1)N1CCC(Cc2ccccc2)CC1 | 27.5 (≈ 84.8 µM)
CC(C)CC1NC(=O)N(CC(=O)Nc2ccc3c(c2)CCC3)C1=O (centres undefined) | 5.6 (≈ 17 µM)
